Columns and labels:
[1] = target: T1, Endonuclease III-like protein 1 (Homo sapiens) (UniProt P78549); conditions: Compound Concentration 10.0 uM, Hit No;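 note: enzyme assay tracking NTHL1 cutting and release of a quenched double-stranded DNA oligo substrate, read as fluorescence at 594 nm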
T1 sequence (whole entry): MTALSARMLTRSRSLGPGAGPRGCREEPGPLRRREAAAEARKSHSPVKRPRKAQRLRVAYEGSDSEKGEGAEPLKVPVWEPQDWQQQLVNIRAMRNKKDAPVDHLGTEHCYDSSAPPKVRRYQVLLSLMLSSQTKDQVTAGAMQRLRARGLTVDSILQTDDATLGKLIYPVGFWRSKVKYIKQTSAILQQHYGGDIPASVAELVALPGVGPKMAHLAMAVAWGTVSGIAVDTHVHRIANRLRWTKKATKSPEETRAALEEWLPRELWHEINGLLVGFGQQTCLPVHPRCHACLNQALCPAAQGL
Description: Inhibition of NTHL1 by quantifying inhibition of NTHL1-mediated cleavage and dissociation of quenched duplex DNA oligonucleotides, measured as fluorescence at 594 nm.

[2] = target: DNA-3-methyladenine glycosylase (Homo sapiens) (UniProt P29372); conditions: Compound Concentration 10.0 uM, Hit No;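 note: enzyme assay where MPG cuts a quenched duplex DNA oligonucleotide probe, paired with APE1 for strand incision and turnover, read as fluorescence at 594 nm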
Sequence of DNA-3-methyladenine glycosylase (Homo sapiens) (P29372 whole entry): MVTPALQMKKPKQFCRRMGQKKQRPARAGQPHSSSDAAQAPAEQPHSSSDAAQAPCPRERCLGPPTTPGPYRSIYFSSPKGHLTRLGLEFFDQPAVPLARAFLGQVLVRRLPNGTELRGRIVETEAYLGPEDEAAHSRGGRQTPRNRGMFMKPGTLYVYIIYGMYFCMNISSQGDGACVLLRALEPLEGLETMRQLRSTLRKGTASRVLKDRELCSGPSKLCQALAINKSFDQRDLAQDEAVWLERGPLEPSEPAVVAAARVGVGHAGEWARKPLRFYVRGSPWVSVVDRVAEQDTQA
Description: Inhibition of MPG by quantifying inhibition of MPG-mediated cleavage and dissociation of quenched duplex DNA oligonucleotides, measured as fluorescence at 594 nm. To generate a functional strand incision and increase turn-over this assay is coupled to APE1.

[3] = target: T2, Single-strand selective monofunctional uracil DNA glycosylase (Homo sapiens) (UniProt Q53HV7); conditions: Compound Concentration 10.0 uM, Hit No;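 note: enzymatic SMUG1 assay coupled with APE1, reading fluorescence at 594 nm released when a quenched double-stranded DNA oligonucleotide substrate is cleaved and separated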
T2 sequence (whole entry): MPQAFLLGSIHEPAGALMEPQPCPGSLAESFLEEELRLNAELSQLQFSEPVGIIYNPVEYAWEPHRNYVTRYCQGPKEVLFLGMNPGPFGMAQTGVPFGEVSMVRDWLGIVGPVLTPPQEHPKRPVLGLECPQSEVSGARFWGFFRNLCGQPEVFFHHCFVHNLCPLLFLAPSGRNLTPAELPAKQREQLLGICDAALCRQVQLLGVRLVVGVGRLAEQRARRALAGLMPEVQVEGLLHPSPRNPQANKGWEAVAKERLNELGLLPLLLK
Description: Inhibition of SMUG1 by quantifying inhibition of SMUG1-mediated cleavage and dissociation of quenched duplex DNA oligonucleotides, measured as fluorescence at 594 nm. To generate a functional strand incision and increase turn-over this assay is coupled to APE1.

[4] = target: T3, Adenine DNA glycosylase (Homo sapiens) (UniProt Q9UIF7); conditions: Compound Concentration 10.0 uM, Hit No;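 note: human MUTYH activity read as 594 nm fluorescence from cleavage and release of a quenched DNA duplex, coupled with APE1 for strand incision, lower signal meaning inhibition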
T3 sequence (whole entry): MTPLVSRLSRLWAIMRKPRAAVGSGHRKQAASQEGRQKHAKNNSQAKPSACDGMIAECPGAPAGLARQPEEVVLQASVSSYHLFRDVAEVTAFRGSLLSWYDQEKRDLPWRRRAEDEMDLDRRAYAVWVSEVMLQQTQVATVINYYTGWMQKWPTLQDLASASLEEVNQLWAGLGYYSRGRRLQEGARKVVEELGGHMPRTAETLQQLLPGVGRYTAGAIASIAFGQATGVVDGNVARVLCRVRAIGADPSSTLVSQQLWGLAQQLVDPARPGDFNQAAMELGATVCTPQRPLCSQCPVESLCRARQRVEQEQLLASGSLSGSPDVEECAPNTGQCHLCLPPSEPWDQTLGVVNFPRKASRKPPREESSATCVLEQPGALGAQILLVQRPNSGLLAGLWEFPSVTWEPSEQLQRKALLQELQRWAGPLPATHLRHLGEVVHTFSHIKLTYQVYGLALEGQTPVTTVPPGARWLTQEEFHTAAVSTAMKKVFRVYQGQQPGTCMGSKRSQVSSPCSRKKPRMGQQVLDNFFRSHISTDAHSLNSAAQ
Description: Inhibition of MUTYH by quantifying inhibition of MUTYH-mediated cleavage and dissociation of quenched duplex DNA oligonucleotides, measured as fluorescence at 594 nm. To generate a functional strand incision and increase turn-over this assay is coupled to APE1.

[5] = target: Uracil-DNA glycosylase (Homo sapiens) (UniProt P13051); conditions: Compound Concentration 10.0 uM, Hit No;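 note: UNG excision on a quenched double-stranded DNA oligo probe, with APE1 added for strand incision and turnover, read as fluorescence at 594 nm as strands separate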
Sequence of Uracil-DNA glycosylase (Homo sapiens) (P13051 whole entry): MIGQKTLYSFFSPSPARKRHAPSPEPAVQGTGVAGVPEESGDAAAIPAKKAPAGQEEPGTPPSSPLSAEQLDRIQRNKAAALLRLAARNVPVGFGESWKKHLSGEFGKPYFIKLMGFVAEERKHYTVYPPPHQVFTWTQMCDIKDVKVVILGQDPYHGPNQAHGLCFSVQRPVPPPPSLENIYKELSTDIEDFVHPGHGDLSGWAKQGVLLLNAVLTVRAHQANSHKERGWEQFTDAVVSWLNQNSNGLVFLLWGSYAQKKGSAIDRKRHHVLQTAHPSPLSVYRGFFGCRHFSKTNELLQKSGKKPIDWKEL
Description: Inhibition of UNG by quantifying inhibition of UNG-mediated cleavage and dissociation of quenched duplex DNA oligonucleotides, measured as fluorescence at 594 nm. To generate a functional strand incision and increase turn-over this assay is coupled to APE1.

[6] = target: N-glycosylase/DNA lyase (Homo sapiens) (UniProt O15527); conditions: Compound Concentration 10.0 uM, Hit No;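 note: OGG1 cleavage of a quenched duplex DNA oligonucleotide, coupled to APE1 for strand incision, read as fluorescence at 594 nm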
Sequence of N-glycosylase/DNA lyase (Homo sapiens) (O15527 whole entry): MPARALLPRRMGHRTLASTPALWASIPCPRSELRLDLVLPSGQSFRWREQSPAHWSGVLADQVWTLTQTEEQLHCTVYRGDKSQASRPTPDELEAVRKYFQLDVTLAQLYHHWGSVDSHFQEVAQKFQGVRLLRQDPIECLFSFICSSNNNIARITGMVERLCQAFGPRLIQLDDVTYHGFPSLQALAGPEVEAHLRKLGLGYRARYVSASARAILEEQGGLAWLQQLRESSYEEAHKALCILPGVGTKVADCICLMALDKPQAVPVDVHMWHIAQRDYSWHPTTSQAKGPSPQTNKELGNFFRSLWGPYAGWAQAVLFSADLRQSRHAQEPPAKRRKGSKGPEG
Description: Inhibition of OGG1 by quantifying inhibition of OGG1-mediated cleavage and dissociation of quenched duplex DNA oligonucleotides, measured as fluorescence at 594 nm. To generate a functional strand incision and increase turn-over this assay is coupled to APE1.

[7] = target: Endonuclease 8-like 1 (Homo sapiens) (UniProt Q96FI4); conditions: Compound Concentration 10.0 uM, Hit No;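 note: fluorescence at 594 nm from quenched duplex DNA oligonucleotides released by NEIL1 cleavage and strand separation, reported as reduction of this enzyme activity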
Sequence of Endonuclease 8-like 1 (Homo sapiens) (Q96FI4 whole entry, the tested form may be a part): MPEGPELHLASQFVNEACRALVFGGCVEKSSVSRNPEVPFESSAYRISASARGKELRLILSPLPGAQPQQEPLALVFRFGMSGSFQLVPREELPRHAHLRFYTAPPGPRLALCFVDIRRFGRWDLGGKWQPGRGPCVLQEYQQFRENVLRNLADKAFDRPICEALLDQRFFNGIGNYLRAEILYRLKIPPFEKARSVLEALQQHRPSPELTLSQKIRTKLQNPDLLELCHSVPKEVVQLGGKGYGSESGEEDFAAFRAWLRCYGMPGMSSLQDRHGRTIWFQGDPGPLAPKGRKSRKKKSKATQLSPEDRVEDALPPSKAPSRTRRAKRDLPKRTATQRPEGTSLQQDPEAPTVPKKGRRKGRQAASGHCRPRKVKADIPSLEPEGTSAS
Description: Inhibition of NEIL1 by quantifying inhibition of NEIL1-mediated cleavage and dissociation of quenched duplex DNA oligonucleotides, measured as fluorescence at 594 nm.

[8] = target: Methyl-CpG-binding domain protein 4 (Homo sapiens) (UniProt O95243); conditions: Compound Concentration 10.0 uM;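 note: MBD4 activity read as fluorescence at 594 nm from cleavage and release of a quenched duplex DNA oligonucleotide, with APE1 coupled to incise the strand and raise turnover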
Sequence of Methyl-CpG-binding domain protein 4 (Homo sapiens) (O95243 whole entry, the tested form may be a part): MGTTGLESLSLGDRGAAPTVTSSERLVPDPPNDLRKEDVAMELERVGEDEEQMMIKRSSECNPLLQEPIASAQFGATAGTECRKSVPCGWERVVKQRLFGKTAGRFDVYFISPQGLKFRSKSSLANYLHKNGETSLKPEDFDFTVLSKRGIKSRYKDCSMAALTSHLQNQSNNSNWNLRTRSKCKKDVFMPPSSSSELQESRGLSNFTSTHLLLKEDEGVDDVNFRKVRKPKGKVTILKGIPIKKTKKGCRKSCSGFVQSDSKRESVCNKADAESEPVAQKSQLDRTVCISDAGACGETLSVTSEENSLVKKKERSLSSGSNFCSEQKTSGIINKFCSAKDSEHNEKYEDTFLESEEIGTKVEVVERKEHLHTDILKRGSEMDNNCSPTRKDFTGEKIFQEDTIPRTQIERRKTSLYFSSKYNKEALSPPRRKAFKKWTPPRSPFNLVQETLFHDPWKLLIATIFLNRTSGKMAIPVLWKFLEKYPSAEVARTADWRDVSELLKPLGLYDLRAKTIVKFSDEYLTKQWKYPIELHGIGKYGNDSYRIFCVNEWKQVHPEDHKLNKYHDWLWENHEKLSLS
Description: Inhibition of MBD4 by quantifying inhibition of MBD4-mediated cleavage and dissociation of quenched duplex DNA oligonucleotides, measured as fluorescence at 594 nm. To generate a functional strand incision and increase turn-over this assay is coupled to APE1.

[9] = target: G/T mismatch-specific thymine DNA glycosylase (Homo sapiens) (UniProt Q13569); conditions: Compound Concentration 10.0 uM, Hit No;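 note: human TDG cleavage of quenched duplex DNA oligonucleotides coupled to APE1, strand release read as fluorescence at 594 nm, inhibition of TDG activity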
Sequence of G/T mismatch-specific thymine DNA glycosylase (Homo sapiens) (Q13569 whole entry): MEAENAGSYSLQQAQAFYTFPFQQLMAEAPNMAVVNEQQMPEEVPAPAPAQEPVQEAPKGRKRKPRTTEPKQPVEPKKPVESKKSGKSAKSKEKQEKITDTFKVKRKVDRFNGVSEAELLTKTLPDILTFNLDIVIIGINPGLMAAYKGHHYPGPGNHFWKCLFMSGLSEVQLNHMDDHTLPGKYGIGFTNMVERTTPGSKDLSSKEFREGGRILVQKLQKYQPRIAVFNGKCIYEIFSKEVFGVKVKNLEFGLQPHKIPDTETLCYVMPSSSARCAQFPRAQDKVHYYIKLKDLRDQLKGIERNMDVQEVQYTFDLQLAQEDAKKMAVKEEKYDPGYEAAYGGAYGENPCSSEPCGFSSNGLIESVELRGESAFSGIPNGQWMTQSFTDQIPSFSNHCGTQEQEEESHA
Description: Inhibition of TDG by quantifying inhibition of TDG-mediated cleavage and dissociation of quenched duplex DNA oligonucleotides, measured as fluorescence at 594 nm. To generate a functional strand incision and increase turn-over this assay is coupled to APE1.

[10] = target: T4, Endonuclease 8-like 2 (Homo sapiens) (UniProt Q969S2); conditions: Compound Concentration 10.0 uM, Hit No;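 note: fluorescence at 594 nm reports NEIL2 cutting and release of a quenched double-stranded DNA oligo substrate, reduced signal read as inhibition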
T4 sequence (whole entry): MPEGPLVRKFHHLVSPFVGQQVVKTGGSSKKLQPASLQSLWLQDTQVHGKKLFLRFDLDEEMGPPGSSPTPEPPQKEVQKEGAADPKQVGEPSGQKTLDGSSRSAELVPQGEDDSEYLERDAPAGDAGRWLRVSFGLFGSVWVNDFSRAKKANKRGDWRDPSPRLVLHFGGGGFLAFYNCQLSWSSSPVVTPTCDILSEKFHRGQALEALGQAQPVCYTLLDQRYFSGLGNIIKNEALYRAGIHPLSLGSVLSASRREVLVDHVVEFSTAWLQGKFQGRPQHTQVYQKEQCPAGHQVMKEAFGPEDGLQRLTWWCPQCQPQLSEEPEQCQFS
Description: Inhibition of NEIL2 by quantifying inhibition of NEIL2-mediated cleavage and dissociation of quenched duplex DNA oligonucleotides, measured as fluorescence at 594 nm.

SMILES	inhibition [1]	inhibition [2]	inhibition [3]	inhibition [4]	inhibition [5]	inhibition [6]	inhibition [7]	inhibition ([8]; Hit No)	inhibition [9]	inhibition [10]	inhibition ([8]; Hit Yes)
COc1ccc2cc(S(=O)(=O)N[C@H](CC(=O)N[C@H](Cc3ccc(CN4[C@H](C)CCC[C@@H]4C)cc3)C(=O)N(C)C(C)C)c3ccc4c(c3)OCO4)ccc2c1	7.79%	30%	-5.31%	-1.26%	3.72%	-6.96%	12.6%	19.6%	44.9%	10.8%	–
COc1cc(NC(=O)CCN2CCC(OC(=O)Nc3ccccc3-c3ccccc3)CC2)c(Cl)cc1CNC[C@H](O)c1ccc(O)c2[nH]c(=O)ccc12	9.99%	7.51%	0.984%	11.4%	-5.99%	-7.57%	-7.76%	-6.36%	16.7%	-2.98%	–
Cc1cccc(F)c1C(=O)Nc1cnc(-c2cc3c(cc2Cl)OC(F)(F)O3)cn1	8.82%	18.4%	9.65%	6.43%	-6.24%	-4.79%	1.79%	7.48%	-9.45%	6.27%	–
COC[C@H](O)Cn1c(=O)cnn(-c2ccc(Cl)c(C(=O)NCC3(O)CCCCCC3)c2)c1=O	-8.51%	19.8%	-5.5%	7.26%	-3.13%	-7.67%	1.64%	2.28%	9.08%	-2.64%	–
Cc1nn(C)c2nc(NNC(=O)Nc3cc(Cl)nc(Cl)c3)cc(C(C)C)c12	4.12%	-8%	4.42%	28.9%	-4.71%	-2.44%	-1.83%	-2.58%	16.6%	7.5%	–
COCCOCCn1nc2c(c1C)-c1c(Cl)ccc3c1c(C)c(C(=O)O)n3CCCOc1cc(cc3c(F)c(Cl)ccc13)CCc1cc(nn1C)CSC2	-0.959%	52.2%	17.3%	36%	9.88%	28.8%	-6.35%	77.7%	59.9%	5.63%	–
NS(=O)(=O)c1c(Cl)ccc(NC(=O)Nc2cccc(Cl)c2Cl)c1O	29%	14.5%	8.49%	10.9%	-6.48%	6.41%	-2.13%	14.2%	16.5%	3.51%	–
CCCn1c(=O)c2nc(C34CC5CC(CC3C5)C4)[nH]c2n(CCC)c1=O	-8.34%	-7.5%	5%	6.8%	-9.84%	-1.3%	5.88%	16.5%	14.1%	12.2%	–
Oc1cc2c(cc1O)CN(C(=S)NCCc1ccc(Cl)cc1)CCC2	3.04%	26.6%	1.46%	73.8%	3.52%	-1.56%	12.2%	39.2%	46.1%	6.53%	–
O=C(COc1cccc2ccccc12)Nc1cc(Cl)ccc1C(=O)O	12.9%	16.5%	8.57%	64.4%	2.63%	24.8%	6.38%	33.2%	37.7%	5.25%	–
NC(N)=Nc1nc(CSCC/C(N)=N/S(N)(=O)=O)cs1	-2.47%	11.5%	-5.17%	21.8%	-4.9%	2.35%	9.58%	6.83%	13.5%	17.5%	–
Cc1onc(-c2ccc(F)cc2)c1COc1ccc(C(=O)N2CCS(=O)(=O)CC2)cn1	12.9%	18.2%	-9.34%	32%	-0.327%	-9.75%	-9.77%	21.2%	0.685%	-7.99%	–
Cc1cc(Cn2cnc3c2C[C@@H](C(=O)O)N(C(=O)C(c2ccccc2)c2ccccc2)C3)ccc1N(C)C	-6.87%	19.4%	7.18%	20.9%	-2.82%	5.17%	10.3%	46%	25.8%	-0.733%	–
CCNC(=O)NS(=O)(=O)c1sc(CC(C)C)cc1-c1ccc(Cn2c(-c3ccccc3)nc(OC)c2C=O)cc1	8.82%	51.7%	36.2%	90.4%	6.28%	21.2%	12.3%	–	64.7%	7.29%	78.6%
CS(=O)(=O)c1cccc(NC(=O)N(Cc2ccc(C(=O)Nc3nnn[nH]3)cc2)c2ccc(C3CCCCC3)cc2)c1	7.79%	26.7%	6.31%	44.3%	-4.34%	18.7%	1.57%	45.7%	36.1%	14.7%	–
COc1cc2nc(N3CCN(C(=O)C4CCCO4)CC3)nc(N)c2cc1OC (stereo not given)	-3.21%	11.2%	3.65%	19%	-7.11%	0.439%	13.6%	17%	22.2%	22.5%	–
N/C(=N\C(=O)c1nc(Cl)c(N)nc1N)NCc1ccccc1	15.4%	25.3%	7.5%	36.7%	4.68%	16.3%	9.94%	41.7%	32.7%	15.2%	–
CCOC(=O)c1ccc(N2C(=O)C(O)=C(C(=O)c3ccc(OC)cc3)C2c2ccc(F)cc2)cc1 (stereo not given)	21.2%	15.7%	1.4%	62.9%	1.33%	-5.97%	11.9%	55.1%	46.7%	0.414%	–
CCCC(=O)N[C@@H](Cc1ccc(O)cc1)C(=O)NCCCCCCCNCCCCN	-3.56%	2.86%	-0.749%	-4.41%	-4.14%	-0.213%	4.46%	20.4%	12.1%	-1.62%	–
CCn1cnc2c(-c3ccc(F)c(-c4ccc(S(=O)(=O)CC)cc4OC)c3)cnnc21	13.8%	7.34%	1.23%	16.3%	6.05%	-5.04%	6.83%	19.2%	22.3%	12.9%	–
